From paper PMC9945734 (BMC Medicine, 2023)

Test system: PC-3-KQ and PC-3-KR cells
Assay: RNA-sequencing and differential gene expression
Format: cell-based, human
Conditions: for logFC: KQ-Control vs KQ-NTZ

## CC(=O)Oc1ccccc1C(=O)Nc1ncc([N+](=O)[O-])s1 [Nitazoxanide]
Gene ANKRD36C
  change of NTZ treatment: down
Gene ANKRD37
  logFC: 0.9125
Gene ANXA8
  logFC: 0.7906
Gene ANXA8L1
  change of NTZ treatment: down
Gene ARG2
  change of NTZ treatment: up
  logFC: 2.138
Gene ARL10
  change of NTZ treatment: down
Gene ARSK
  change of NTZ treatment: up
  logFC: 0.7653
Gene ASB2
  change of NTZ treatment: down
Gene ATP2A3
  logFC: 1.284
Gene BRINP2
  change of NTZ treatment: down
Gene BTBD11
  change of NTZ treatment: down
Gene BTN3A3
  change of NTZ treatment: up
Gene CAPN12
  logFC: 0.767
Gene CAPSL
  change of NTZ treatment: down
Gene CCNA1
  logFC: 0.9046
Gene CEP19
  change of NTZ treatment: down
Gene CFB
  logFC: 0.9221
Gene CNTNAP3B
  change of NTZ treatment: down
Gene COL4A3
  logFC: 2.258
Gene COL4A4
  logFC: 0.8129
Gene CSF1R
  change of NTZ treatment: up
Gene CXCL5
  change of NTZ treatment: down
Gene CYP1B1
  change of NTZ treatment: up
Gene CYP2E1
  change of NTZ treatment: up
Gene CYP8B1
  change of NTZ treatment: up
  logFC: 1.238
Gene CYSTM1
  change of NTZ treatment: up
  logFC: 0.6246
Gene DEPTOR
  change of NTZ treatment: down
Gene DISP1
  change of NTZ treatment: up
  logFC: 0.6346
Gene DMPK
  change of NTZ treatment: up
  logFC: 0.6319
Gene DRP2
  change of NTZ treatment: down
Gene ECM2
  change of NTZ treatment: down
Gene ESPN
  change of NTZ treatment: up
Gene FA2H
  logFC: 1.574
Gene FAM83D
  change of NTZ treatment: down
Gene FAM178B
  logFC: 1.11
Gene FAM186B
  change of NTZ treatment: down
Gene FANCI
  change of NTZ treatment: down
Gene FANCL
  change of NTZ treatment: down
Gene FCGBP
  change of NTZ treatment: down
Gene FER1L6
  logFC: 0.6222
Gene FIBCD1
  logFC: 1.28
Gene FLI1
  change of NTZ treatment: down
Gene FLRT1
  change of NTZ treatment: down
Gene FRY
  change of NTZ treatment: up
  logFC: 1.204
Gene FSD2
  change of NTZ treatment: down
Gene FTH1
  logFC: 1.218
Gene FUT3
  logFC: 0.7626
Gene FXYD3
  logFC: 0.8317
Gene FZD4
  change of NTZ treatment: down
Gene GALNT12
  logFC: 0.8862
Gene GCNT3
  change of NTZ treatment: up
  logFC: 2.701
Gene GDPD3
  logFC: 1.109
Gene HAS3
  change of NTZ treatment: down
Gene HSPB8
  change of NTZ treatment: up
  logFC: 1.784
Gene IFITM10
  change of NTZ treatment: up
Gene IGDCC4
  change of NTZ treatment: up
  logFC: 1.493
Gene IGF2BP1
  change of NTZ treatment: down
Gene IL1RN
  change of NTZ treatment: up
Gene IL36RN
  logFC: 0.6398
Gene INHBA
  change of NTZ treatment: down
Gene KDELR2
  change of NTZ treatment: up
  logFC: 0.621
Gene KIAA0319
  logFC: 2.322
Gene KIAA1755
  change of NTZ treatment: down
Gene KLHDC7B
  logFC: 1.286
Gene LOC105374299
  logFC: 1.732
Gene LONRF2
  change of NTZ treatment: down
Gene LRRK1
  logFC: 0.8715
Gene LTB
  change of NTZ treatment: down
Gene MAP2
  change of NTZ treatment: up
  logFC: 0.8904
Gene MCM4
  change of NTZ treatment: down
Gene MEF2C
  change of NTZ treatment: up
Gene MEOX1
  change of NTZ treatment: down
Gene METRNL
  change of NTZ treatment: up
Gene MFSD2A
  logFC: 0.6152
Gene MINAR1
  logFC: 1.165
Gene MMP9
  change of NTZ treatment: down
Gene MROH8
  change of NTZ treatment: down
Gene MUC4
  change of NTZ treatment: up
  logFC: 1.575
Gene MVP
  logFC: 0.7778
Gene MYH7B
  change of NTZ treatment: down
Gene NAV1
  change of NTZ treatment: up
  logFC: 1.226
Gene NECTIN4
  logFC: 1.852
Gene NKD1
  change of NTZ treatment: down
Gene NLRC5
  logFC: 0.8508
Gene NR4A2
  change of NTZ treatment: up
Gene NT5E
  change of NTZ treatment: up
  logFC: 0.5964
Gene PCDH18
  change of NTZ treatment: down
Gene PDGFA
  logFC: 0.7622
Gene PDZK1
  change of NTZ treatment: up
  logFC: 0.8579
Gene PGAM4
  change of NTZ treatment: down
Gene PHOSPHO2
  change of NTZ treatment: down
Gene PIANP
  change of NTZ treatment: down
Gene PKIA
  logFC: 0.8539
Gene PLEKHG1
  change of NTZ treatment: up
Gene PRKAR1B
  logFC: 0.8008
Gene PRKDC
  change of NTZ treatment: down
Gene PROS1
  change of NTZ treatment: up
  logFC: 0.9134
Gene PRR16
  change of NTZ treatment: down
Gene PRRT4
  change of NTZ treatment: down
Gene RBL1
  change of NTZ treatment: down
Gene RMDN2
  logFC: 0.9051
Gene RND1
  change of NTZ treatment: up
Gene RP1L1
  change of NTZ treatment: down
Gene S100A6
  change of NTZ treatment: up
  logFC: 0.6427
Gene SAT1
  logFC: 0.7952
Gene SDCBP2
  logFC: 1.238
Gene SERPINA5
  change of NTZ treatment: down
Gene SERPINB3
  change of NTZ treatment: down
Gene SERPINB4
  change of NTZ treatment: down
Gene SERPIND1
  change of NTZ treatment: down
Gene SGK3
  change of NTZ treatment: up
Gene SHISA3
  change of NTZ treatment: down
Gene SLC41A2
  change of NTZ treatment: up
  logFC: 0.8444
Gene SLFN11
  change of NTZ treatment: up
Gene SMCO4
  change of NTZ treatment: up
Gene SPOCK2
  change of NTZ treatment: up
  logFC: 1.756
Gene SRPX
  logFC: 0.5983
Gene STK32A
  logFC: 1.274
Gene SYN3
  logFC: 1.227
Gene TBX2
  logFC: 0.6055
Gene TCN1
  change of NTZ treatment: down
Gene TJP3
  change of NTZ treatment: up
  logFC: 0.6134
Gene TMEM140
  change of NTZ treatment: up
Gene TMEM269
  change of NTZ treatment: up
  logFC: 0.7715
Gene TMOD1
  logFC: 1.793
Gene TMPRSS2
  logFC: 1.205
Gene TNFRSF6B
  change of NTZ treatment: down
Gene TNFRSF11B
  change of NTZ treatment: down
Gene TNFSF14
  logFC: 1.643
Gene TRIM31
  change of NTZ treatment: up
  logFC: 1.207
Gene TTC9
  change of NTZ treatment: up
Gene TTC30B
  change of NTZ treatment: down
Gene UGT2B7
  logFC: 1.608
Gene WHRN
  logFC: 0.869
Gene WNT4
  logFC: 1.78
Gene WNT9A
  change of NTZ treatment: up
Gene ZNF302
  change of NTZ treatment: down
